From patent US20100303896A1, “5BETA, 14BETA-ANDROSTANE DERIVATIVES USEFUL FOR THE TREATMENT OF RESTENOSIS AFTER ANGIOPLASTIC OR ENDOARTHERECTOMY AND DISEASES DUE TO ORGAN FIBROSIS” (SIGMA-TAU INDUSTRIE FARMACEUTICHE RIUNITE S.P.A., priority 2007, published 2010)
Values joined by “and” are separate entries in the source; they are usually repeats but may differ in a detail not shown here. Equal entries are not always repeated. “Also recorded” adds a separate entry of the source.

What was measured:
Type in all cases: in vivo, rat
[1] = tested on: spontaneous hypertensive MHS rats; test: Prevention of restenosis after carotid surgical injury (endoartherectomy model), morphometry of the carotid lumen area
Excerpt: (§1) To test the activity of the compound of the invention for the prevention of restenosis after endoartherectomy, spontaneous hypertensive MHS rats with genetic arterial hypertension (Bianchi G., Barber B. R., Torielli L., Ferrari P. The Milan hypertensive strain of rats. Genetic Model of Hypertension. 1994; 22: 457-460) were used. MHS rats are available at Prassis Research Institute, Sigma-tau, Italy.
After this period rats were subjected to the vascular surgical injury according to the protocol listed below. After surgical injury, rats were maintained under treatment either with vehicle or Rostafuroxin for further 30 days and then sacrificed for carotid artery sampling. […] The final number of rats used for the histological carotid analysis was; MHS vehicle=7, MHS Rostafuroxin=9.
(§2) The carotid surgical injury model used on MHS and MNS rat is described in J. Cell. Physiol. 2001; 186:307-313.
(§3) Briefly, a plastic Scanlon clamp for coronary artery bypass grafting was placed for 10 seconds on the carotid artery in order to cause a crushing lesion to vessel. At the same point where the clamp was applied, a 0.5 mm longitudinal incision was performed on the full thickness of the carotid artery. […] Hemostasis was obtained with a single adventitial 8.0-gauge polypropylene stitch. Once bleeding stopped, the carotid artery was carefully examined and blood pulsation was checked distally to the incision.
Carotid arteries were taken 30 days after injury. […]
(§4) For each injured carotid, at least 60 serial cross-sections were observed under a light microscope at 20× magnification; image screening and photography were performed using Leica IM 1000 System (Leica, Wetzlar, Germany). The sections of injured carotids showing maximal remodelling and proliferative phenomena were identified and further analyzed.
(§5) Lumen and medial areas were measured using the Leica IM 1000 software (Leica, Heerbrugg, Switzerland). […] For each contralateral uninjured carotid, at least 10 sections were analyzed and the average media and lumen areas were calculated. […]

[2] = tested on: MNS rats without arterial hypertension; test: Prevention of restenosis after carotid surgical injury, morphometry of the carotid lumen area; settings: 100 μg/kg orally, carotid taken 30 days after injury
Protocol: as §2, §3
Carotid arteries were taken 30 days after injury. Rats were anaesthetized and carotids were dissected free from the surrounding tissues. […]
as §4, §5

[3] = tested on: MHS rats with CCl4-induced liver fibrosis; test: CCl4-induced liver fibrosis: body and organ weights
Excerpt: as §1, with “prevention and treatment” for “prevention”, “organ fibrosis,” for “restenosis after endoartherectomy,”
(§6) Liver fibrosis was induced by CCl4 oral administration as described in J. Hepatol. 1999; 30: 621-631, with minor modifications: 0.375 ml/kg of CCl4 dissolved in olive oil was administered three times per week for three weeks by oral gavage to rats starting from the 7th week after weaning. Control rats received only the vehicle (olive oil). Rostafuroxin treatment started 7 weeks before the induction of liver fibrosis by CCl4 administration (pretreatment) and was continued during the CCl4 treatment for three weeks. Rostafuroxin was orally administered at 1 mg/kg/day, suspended in Methocel (0.5%). A total of twenty four MHS rats of 25 days of age (weaning) were subdivided in three groups of 8 rats each: the first group, considered as negative control for liver fibrosis induction (Ctr.), was orally treated with the Rostafuroxin vehicle (Methocel 0.5%) along the entire period (10 weeks) and received the olive oil as vehicle of CCl4 at the 7th week after weaning for three weeks; the second group, considered as positive control for liver fibrosis (Ctr. LF), was orally treated with the Rostafuroxin vehicle (Methocel 0.5%) along the entire period (10 weeks) and received CCl4 at the 7th week after weaning for three weeks; the third group, Rostafuroxin treated with liver fibrosis (RLF), received Rostafuroxin at 1 mg/kg along the entire period (10 weeks) and received CCl4 at the 7th week after weaning for three weeks. At the end of the treatment (10th week), rats were weighed and anaesthetized with pentobarbital for blood sampling and organ removal. The blood was let clotted and serum separated after centrifugation and saved for measurement of serum albuminemia and transaminases (ALT and AST) on a Pentra 400 (ABX) Automatic Hematology Analyzer. Spleen and liver were removed and weighed. Samples of the liver median lobe were immediately frozen in liquid nitrogen and kept at −80° for further biochemical measurement of the 4-Hydroxiproline liver content, taken as an index of collagen deposition (Biochem. J. 1961; 80(1): 148-154). The rest of the liver was preserved in a 10% buffered formalin solution for the histological analysis.

[4] = tested on: MHS rats with CCl4-induced liver fibrosis; test: CCl4-induced liver fibrosis: serum albuminemia and transaminases (ALT and AST)
Excerpt: as §1, with “prevention and treatment” for “prevention”, “organ fibrosis,” for “restenosis after endoartherectomy,”
as §6

[5] = tested on: MHS rats with CCl4-induced liver fibrosis; test: CCl4-induced liver fibrosis: hydroxyproline liver content
Excerpt: as §1, with “prevention and treatment” for “prevention”, “organ fibrosis,” for “restenosis after endoartherectomy,”
as §6, with “At the end of the treatment (10th week), rats were weighed and anaesthetized with pentobarbital for blood sampling and organ removal. The blood was let clotted and serum separated after centrifugation and saved for measurement of serum albuminemia and transaminases (ALT and AST) on a Pentra 400 (ABX) Automatic Hematology Analyzer. Spleen and liver were removed and weighed. Samples of the liver median lobe were immediately frozen in liquid nitrogen and kept at −80° for further biochemical measurement of the 4-Hydroxiproline liver content, taken as an index of collagen deposition (Biochem. J. 1961; 80(1): 148-154). The rest of the liver was preserved in a 10% buffered formalin solution for the histological analysis.” left out
Hydroxyproline liver content was determined as described in Anal. Biochem. 1981; 112: 70-75, with slight modifications.
Liver tissue (0.4 g) was homogenized in 3 ml 6 N HCl and hydrolyzed at 110° C. for 24 h. […] After cooling, the absorbance was measured at 558 nm (Jasco V-530).

[6] = tested on: MHS rats with CCl4-induced liver fibrosis; test: CCl4-induced liver fibrosis: histopathology and qualitative fibrosis score on Syrius red stained slides; set-up: key to Liver fibrosis score, histological appearance (FIG. 8): 0: Absence of liver fibrosis, but normal staining pattern only; 1: Mild degree, corresponding to centrilobular/periportal fibrosis, with predominantly uncomplete septal expansion—mild focal interstitial fibrosis; 2: Moderate degree, corresponding to diffuse bridging fibrosis, with focal nodular appearance—multifocal interstitial fibrosis; 3: Severe degree, corresponding to confluent fibrosis, with diffuse nodular appearance—severe diffuse interstitial fibrosis
Excerpt: as §1, with “prevention and treatment” for “prevention”, “organ fibrosis,” for “restenosis after endoartherectomy,”
as §6
For each case, the median and the left lobes of the liver were subjected to standard trimming and embedding procedures; slides were stained with Hematoxylin and Eosin (H&E) (Laboratory Methods in Histotechnology; Armed Forces Institute of Pathology Published by the American Registry of Pathology Washington, D.C. 1992). Special techniques were also applied in order to allow proper connective tissue detection (Masson's Trichrome stain—Laboratory Methods in Histotechnology; Armed Forces Institute of Pathology Published by the American Registry of Pathology Washington, D.C. 1992) as well as specific collagen detection and hepatic fibrosis evaluation (Syrius red staining method as described in The Journal of Histochemistry and Citochemistry 1985; vol 33, No. 8, pp. 737-743).
Liver fibrosis was qualitatively scored on Syrius red stained slides as follows:
0=Absence of liver fibrosis, but normal staining pattern only;
1=Mild degree, corresponding to centrilobular/periportal fibrosis, with predominantly uncomplete septal expansion—mild focal interstitial fibrosis;
2=Moderate degree, corresponding to diffuse bridging fibrosis, with focal nodular appearance—multifocal interstitial fibrosis;
3=Severe degree, corresponding to confluent fibrosis,
with diffuse nodular appearance—severe diffuse interstitial fibrosis. […]

[7] = tested on: MHS rats with CCl4-induced liver fibrosis; test: CCl4-induced liver fibrosis: quantitative histomorphometric analysis of fibrotic area (Sirius Red, ImageJ)
Excerpt: as §1, with “prevention and treatment” for “prevention”, “organ fibrosis,” for “restenosis after endoartherectomy,”
Liver fibrosis was induced by CCl4 oral administration as described in J. Hepatol. 1999; 30: 621-631, with minor modifications: 0.375 ml/kg of CCl4 dissolved in olive oil was administered three times per week for three weeks by oral gavage to rats starting from the 7th week after weaning. Control rats received only the vehicle (olive oil). Rostafuroxin treatment started 7 weeks before the induction of liver fibrosis by CCl4 administration (pretreatment) and was continued during the CCl4 treatment for three weeks. Rostafuroxin was orally administered at 1 mg/kg/day, suspended in Methocel (0.5%). […]
A quantitative analysis of the degree of fibrosis, following the histological qualitative analysis, was performed by digital imaging conversion of the histological pictures by a previously described method (J. Gastroenterol. 2004, Oct. 1; 10(19)2894-2897).
Briefly, after staining with Sirius Red, liver collagen content was measured by histomorphometric method. […] Each picture was analyzed by computer system ImageJ version 1.39 for digital image analysis. […] The fibrotic area with positive staining were automatically selected, outlined and evaluated. Relative content of collagen was calculated as a percentage of positive staining pixels on the total number of pixels of the picture.

[8] = RLF group, 1 mg/kg os for 10 weeks + CCl4, individual rats, 1 mg/kg
[9] = rats with CCl4-induced liver fibrosis, 1 mg/kg os
[10] = rats with CCl4-induced liver fibrosis, vs Ctr. LF, statistically significant

Q: With `C[C@]12CC[C@H](O)C[C@H]1CC[C@@H]1[C@@H]2CC[C@]2(C)[C@@](O)(c3ccoc3)CC[C@]12O` [Rostafuroxin, 17 beta-(3-Furyl)-5 beta-androstane-3beta, 14 beta, 17 alpha-triol] as the compound, how does the “Change in arterial restenosis vs vehicle” value ([1]; MHS rats with arterial hypertension, vs vehicle, statistically significant) read?
A: Its value is −45%.

Q: What about the “Carotid lumen area, Injured/Uninjured carotid ratio, mean” value ([1]; MHS rats, 100 μg/kg orally, carotid taken 30 days after injury, group mean (n=9), vehicle mean 0.379) of the same compound?
A: The value was 0.680.

Q: And the “Carotid lumen area, Injured/Uninjured carotid ratio” value ([1]; MHS rats, 100 μg/kg orally, carotid taken 30 days after injury, individual animals)?
A: Its value is 0.86 and 0.83 and 0.81 and 0.66 and 0.54 and 0.36 and 0.25 and 0.90 and 0.89.

Q: And the “Carotid lumen area, Injured/Uninjured carotid ratio, mean” value ([2]; group mean (n=10), vehicle mean 0.540)?
A: The value was 0.765.

Q: What about the “Carotid lumen area, Injured/Uninjured carotid ratio” value ([2]; individual animals) of the same compound?
A: Its value is 0.93 and 0.83 and 0.80 and 0.76 and 0.75 and 0.68 and 0.59 and 0.36 and 1.00 and 0.95.

Q: What about the “Spleen/bw, mean” value ([3]; RLF group, 1 mg/kg os for 10 weeks + CCl4, group mean (n=8), Ctr. LF mean 0.355) of the same compound?
A: The value was 0.284%.

Q: And the Spleen/bw [3, 8]?
A: The Spleen/bw was 0.251% and 0.316% and 0.261% and 0.262% and 0.247% and 0.302% and 0.348% and 0.288%.

Q: What about the “Weight of the liver” value [3, 9] of the same compound?
A: Its value is “not modified”.

Q: What about the “Reduction of spleen weight” value [3, 10] of the same compound?
A: Its value is 20%.

Q: What about the “Albumin, mean” value ([4]; RLF group, 1 mg/kg os for 10 weeks + CCl4, group mean (n=8), Ctr. LF mean 3.02) of the same compound?
A: The value was 3.53 g/dL.

Q: And the Albumin [4, 8]?
A: Its Albumin is 3.65 g/dL and 3.36 g/dL and 4.15 g/dL and 2.95 g/dL and 3.19 g/dL and 3.07 g/dL and 3.82 g/dL and 4.04 g/dL.

Q: And the “Transaminases (ALT and AST)” value [4, 9]?
A: The value was “not modified”.

Q: And the “Increase of plasma levels of albumin” value [4, 10]?
A: Its value is 16.8%.

Q: And the “Liver hydroxyproline, mean” value ([5]; RLF group, 1 mg/kg os for 10 weeks + CCl4, group mean (n=8), Ctr. LF mean 1596.45)?
A: The value was 1184.9 μg/g prot.

Q: What about the Liver hydroxyproline [5, 8] of the same compound?
A: The Liver hydroxyproline was 886.5 μg/g prot and 791.6 μg/g prot and 1217.4 μg/g prot and 811.0 μg/g prot and 799.8 μg/g prot and 2762.3 μg/g prot and 750.0 μg/g prot and 1460.7 μg/g prot.

Q: And the “Reduction of liver content of hydroxyproline” value ([5]; rats with CCl4-induced liver fibrosis, vs Ctr. LF)?
A: Its value is 25.8%.

Q: And the “Extension of liver tissue damage (histopathology)” value ([6]; CCl4-treated rats, 1 mg/kg os, compared with Ctr. LF group, 1 mg/kg)?
A: The value was “minor extension of tissue damage; also recorded: less extended tissue damage”.

Q: What about the “Liver fibrosis Absence (score 0), % of rats” value ([6]; RLF group, 1 mg/kg OS + CCl4) of the same compound?
A: The value was 0%.

Q: And the “Liver fibrosis Absence (score 0), No. of rats” value ([6]; RLF group, 1 mg/kg OS + CCl4)?
A: Its value is 0/8.

Q: What about the “Liver fibrosis Mild (score 1), % of rats” value ([6]; RLF group, 1 mg/kg OS + CCl4) of the same compound?
A: Its value is 75%.

Q: What about the “Liver fibrosis Mild (score 1), No. of rats” value ([6]; RLF group, 1 mg/kg OS + CCl4) of the same compound?
A: Its value is 6/8.

Q: What about the “Liver fibrosis Moderate (score 2), % of rats” value ([6]; RLF group, 1 mg/kg OS + CCl4) of the same compound?
A: Its value is 25%.

Q: What about the “Liver fibrosis Moderate (score 2), No. of rats” value ([6]; RLF group, 1 mg/kg OS + CCl4) of the same compound?
A: Its value is 2/8.

Q: And the “Liver fibrosis Severe (score 3), % of rats” value ([6]; RLF group, 1 mg/kg OS + CCl4)?
A: The value was 0%.

Q: And the “Liver fibrosis Severe (score 3), No. of rats” value ([6]; RLF group, 1 mg/kg OS + CCl4, 1 mg/kg)?
A: Its value is “no rats and 0/8”.

Q: What about the “Liver fibrosis score, histological appearance (FIG. 8)” value ([6]; liver from two CCl4 rats treated at 1 mg/kg os (RLF group)) of the same compound?
A: Its value is 1.

Q: What about the “% FIBROTIC AREA, mean” value ([7]; RLF group, 1 mg/kg os for 10 weeks + CCl4, group mean (n=8), Ctr. LF mean 10.48) of the same compound?
A: The value was 5.50%.

Q: What about the “% FIBROTIC AREA” value [7, 8] of the same compound?
A: The value was 4.64% and 5.50% and 1.44% and 6.63% and 6.89% and 5.08% and 11.80% and 2.01%.

Q: And the “Reduction of liver fibrotic area” value [7, 10]?
A: Its value is 47.5%.
